IC50 data for seven compounds are collected here from US20250161281A1, “EMOPAMIL-BINDING PROTEIN INHIBITORS AND USES THEREOF” (BIOGEN MA INC., priority 2022, published 2025).

T1 sequence (Q15125 whole entry): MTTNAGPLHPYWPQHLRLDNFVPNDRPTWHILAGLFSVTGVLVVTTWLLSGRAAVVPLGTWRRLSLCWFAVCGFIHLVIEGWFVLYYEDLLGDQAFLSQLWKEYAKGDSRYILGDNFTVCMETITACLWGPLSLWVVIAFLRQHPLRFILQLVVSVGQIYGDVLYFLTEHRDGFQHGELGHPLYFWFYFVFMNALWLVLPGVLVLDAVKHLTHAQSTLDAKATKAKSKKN

The assay concerns the target T1, EBP (Homo sapiens, UniProt Q15125).
T1 construct: HEK293T cells were utilized as the source of EBP enzyme; endogenous in cells; host or cells: HEK293T
Nature of the assay: EBP Functional Assay (EBP immunoaffinity LC-MS assay). The conditions noted are these: HEK293T cells as source of EBP enzyme; 30 min with inhibitor, then zymosterol-d5, 37° C. for 4 h; percent conversion by LC-APCI MRM MS. It counts as biochemical. In short, it runs like this: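 HEK293T cells as EBP source, preincubated with inhibitor 30 min, then zymosterol-d5 added for 4 h at 37° C. Sterols extracted and quantified by LC-APCI MRM MS. IC50 from percent conversion of zymosterol-d5 to product, fitted with a 4-parameter logistic model; Tasin-1 as reference.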
For orientation: IC50 means the midpoint of a concentration-inhibition curve. A higher IC50 goes with a need for much substance. As to `CC1(O)CCN(C2CC3CCC(C2)N3S(=O)(=O)c2ccc(OC(F)F)cc2)C1` (stereo not shown) [Example 49, 1-(8-((4-(Difluoromethoxy)phenyl)sulfonyl)-8-azabicyclo[3.2.1]octan-3-yl)-3-methylpyrrolidin-3-ol], the IC50 lay in the range of 50 to 150 nM.
Under `CC1CCN([C@@H]2C[C@H]3CC[C@@H](C2)N3S(=O)(=O)c2ccc(OC(F)F)cc2)CC1` [Example 21, (1R,3s,5S)-8-((4-(difluoromethoxy)phenyl)sulfonyl)-3-(4-methylpiperidin-1-yl)-8-azabicyclo[3.2.1]octane] stands under 50 nM; under `O=S(=O)(c1ccc(OC(F)F)cc1)N1C2CCC1CC(NC1CCC1O)C2` (stereo not shown) [Example 14, 2-((8-((4-(Difluoromethoxy)phenyl)sulfonyl)-8-azabicyclo[3.2.1]octan-3-yl)amino)cyclobutan-1-ol], under 50 nM; under `O=S(=O)(c1ccc(OC(F)F)cc1)N1[C@@H]2CC[C@H]1C[C@@H](NCC1CCOCC1)C2` [Example 32, (1R,3r,5S)-8-((4-(Difluoromethoxy)phenyl)sulfonyl)-N-((tetrahydro-2H-pyran-4-yl)methyl)-8-azabicyclo[3.2.1]octan-3-amine], under 50 nM.
As to `CC12CC(NC3CC4CCC(C3)N4S(=O)(=O)c3ccc(OC(F)F)cc3)(CO1)C2` (stereo not shown) [Example 30, 8-((4-(Difluoromethoxy)phenyl)sulfonyl)-N-(1-methyl-2-oxabicyclo[2.1.1]hexan-4-yl)-8-azabicyclo[3.2.1]octan-3-amine], the IC50 is under 50 nM.
Regarding `O=S(=O)(c1ccc(OC(F)F)cc1)N1[C@@H]2CC[C@H]1C[C@H](NCC1CCOCC1)C2` [Example 29, (1R,3s,5S)-8-((4-(Difluoromethoxy)phenyl)sulfonyl)-N-((tetrahydro-2H-pyran-4-yl)methyl)-8-azabicyclo[3.2.1]octan-3-amine], the 50% inhibitory concentration (IC50) is under 50 nM.
`O=S(=O)(c1ccc(OC(F)F)cc1)N1C2CCC1CC(N1CCC3(COC3)C1)C2` (stereo not shown) [Example 51, 6-(8-((4-(Difluoromethoxy)phenyl)sulfonyl)-8-azabicyclo[3.2.1]octan-3-yl)-2-oxa-6-azaspiro[3.4]octane] gave an IC50 of 150 to 2000 nM.
